Measurements from patent US20240423207A1, “PICOLINAMIDE COMPOUNDS WITH FUNGICIDAL ACTIVITY” (CORTEVA AGRISCIENCE LLC, priority 2014, published 2024).

What was measured:
Assay type in all cases: in vivo
Cercospora beticola = assay: Leaf Spot of Sugar Beets (CERCBE) fungicidal activity on sugar beet plants; conditions: 24 h, 1 Day Protectant, read-out: CERCBE 1 DP disease control
Method: Technical grades of materials were dissolved in acetone, which were then mixed with nine volumes of water (H2O) containing 110 ppm Triton X-100. The fungicide solutions were applied onto wheat seedlings using an automated booth sprayer to run-off. All sprayed plants were allowed to air dry prior to further handling. All fungicides were evaluated using the aforementioned method for their activity vs. all target diseases, unless stated otherwise. Wheat leaf blotch and brown rust activity were also evaluated using track spray applications, in which case the fungicides were formulated as EC formulations, containing 0.1% Trycol 5941 in the spray solutions. Wheat plants (variety Yuma) were grown from seed in a greenhouse in 50% mineral soil/50% soil-less Metro mix until the first leaf was fully emerged, with 7-10 seedlings per pot. These plants were inoculated with an aqueous spore suspension of Septoria tritici either prior to or after fungicide treatments. After inoculation the plants were kept in 100% relative humidity (one day in a dark dew chamber followed by two to three days in a lighted dew chamber at 20° C.) to permit spores to germinate and infect the leaf. The plants were then transferred to a greenhouse set at 20° C. for disease to develop. When disease symptoms were fully expressed on the 1st leaves of untreated plants, infection levels were assessed on a scale of 0 to 100 percent disease severity. Percent disease control was calculated using the ratio of disease severity on treated plants relative to untreated plants. Example E: Evaluation of Fungicidal Activity: Leaf Spot of Sugar Beets (Cercospora beticola; Bayer code CERCBE) Sugar beet plants (variety HH88) were grown in soil-less Metro mix and trimmed regularly to maintain a uniform plant size prior to test. Plants were inoculated with a spore suspension 24 h after fungicide treatments. Inoculated plants were kept in a dew chamber at 22° C. for 48 h then incubated in a greenhouse set at 24° C. under a clear plastic hood with bottom ventilation until disease symptoms were fully expressed. Fungicide formulation, application and disease assessment on the sprayed leaves followed the procedures as described in the Example A.

Alternaria solani = assay: Tomato Early Blight (ALTESO) fungicidal activity on tomato plants; conditions: 24 h, 1 Day Protectant, read-out: ALTESO 1 DP disease control
Method: Technical grades of materials were dissolved in acetone, which were then mixed with nine volumes of water (H2O) containing 110 ppm Triton X-100. The fungicide solutions were applied onto wheat seedlings using an automated booth sprayer to run-off. All sprayed plants were allowed to air dry prior to further handling. All fungicides were evaluated using the aforementioned method for their activity vs. all target diseases, unless stated otherwise. Wheat leaf blotch and brown rust activity were also evaluated using track spray applications, in which case the fungicides were formulated as EC formulations, containing 0.1% Trycol 5941 in the spray solutions. Wheat plants (variety Yuma) were grown from seed in a greenhouse in 50% mineral soil/50% soil-less Metro mix until the first leaf was fully emerged, with 7-10 seedlings per pot. These plants were inoculated with an aqueous spore suspension of Septoria tritici either prior to or after fungicide treatments. After inoculation the plants were kept in 100% relative humidity (one day in a dark dew chamber followed by two to three days in a lighted dew chamber at 20° C.) to permit spores to germinate and infect the leaf. The plants were then transferred to a greenhouse set at 20° C. for disease to develop. When disease symptoms were fully expressed on the 1st leaves of untreated plants, infection levels were assessed on a scale of 0 to 100 percent disease severity. Percent disease control was calculated using the ratio of disease severity on treated plants relative to untreated plants. Example I: Evaluation of Fungicidal Activity: Tomato Early Blight (Alternaria solani; Bayer code […]) Tomato plants (variety Outdoor Girl) were propagated in soil-less Metro mix, with each pot having one plant, and used when 12 to 14 days old. Test plants were inoculated with an aqueous spore suspension of Alternaria solani 24 h after fungicide treatments. After inoculation the plants were kept in 100% relative humidity (one day in a dark dew chamber followed by two to three days in a lighted dew chamber at 20° C.) to permit spores to germinate and infect the leaf. The plants were then transferred to a growth room at 22° C. for disease to develop. Fungicide formulation, application and disease assessment on the sprayed leaves followed the procedures as described in the Example A.

Rhyncosporium secalis = assay: Barley Scald (RHYNSE) fungicidal activity on barley seedlings; conditions: Hordeum vulgare, 24 h, 1 Day Protectant, read-out: RHYNSE 1 DP disease control
Method: Technical grades of materials were dissolved in acetone, which were then mixed with nine volumes of water (H2O) containing 110 ppm Triton X-100. The fungicide solutions were applied onto wheat seedlings using an automated booth sprayer to run-off. All sprayed plants were allowed to air dry prior to further handling. All fungicides were evaluated using the aforementioned method for their activity vs. all target diseases, unless stated otherwise. Wheat leaf blotch and brown rust activity were also evaluated using track spray applications, in which case the fungicides were formulated as EC formulations, containing 0.1% Trycol 5941 in the spray solutions. Wheat plants (variety Yuma) were grown from seed in a greenhouse in 50% mineral soil/50% soil-less Metro mix until the first leaf was fully emerged, with 7-10 seedlings per pot. These plants were inoculated with an aqueous spore suspension of Septoria tritici either prior to or after fungicide treatments. After inoculation the plants were kept in 100% relative humidity (one day in a dark dew chamber followed by two to three days in a lighted dew chamber at 20° C.) to permit spores to germinate and infect the leaf. The plants were then transferred to a greenhouse set at 20° C. for disease to develop. When disease symptoms were fully expressed on the 1st leaves of untreated plants, infection levels were assessed on a scale of 0 to 100 percent disease severity. Percent disease control was calculated using the ratio of disease severity on treated plants relative to untreated plants. Example G: Evaluation of Fungicidal Activity: Barley Scald (Rhyncosporium secalis; Bayer code […]) Barley seedlings (variety Harrington) were propagated in soil-less Metro mix, with each pot having 8 to 12 plants, and used in the test when the first leaf was fully emerged. Test plants were inoculated by an aqueous spore suspension of Rhyncosporium secalis 24 h after fungicide treatments. After inoculation the plants were kept in a dew room at 20° C. with 100% relative humidity for 48 h. The plants were then transferred to a greenhouse set at 20° C. for disease to develop. Fungicide formulation, application and disease assessment on the sprayed leaves followed the procedures as described in the Example A.

`COc1ccnc(C(=O)N[C@@H](C)C(=O)O[C@@H](C)C(c2ccccc2)c2ccccc2)c1OC(=O)C(C)C` [Cmpd 140] was tested, and the pest or weed control at 100 ppm (Cercospora beticola) was over 80% and the pest or weed control at 100 ppm (Alternaria solani) was over 80%.
`COc1ccnc(C(=O)N[C@@H](C)C(=O)O[C@@H](C)C(c2ccc(F)cc2)c2ccc(F)cc2)c1OCOC(C)=O` [Cmpd 146] was tested, and the pest or weed control at 100 ppm (Cercospora beticola) was over 80%, the pest or weed control at 100 ppm (Rhyncosporium secalis) was over 80% and the pest or weed control at 100 ppm (Alternaria solani) was over 80%.
For `COc1ccnc(C(=O)N[C@@H](C)C(=O)O[C@@H](C)C(c2ccccc2)c2ccccc2)c1OC(C)=O` [Cmpd 139, (S)-(S)-1,1-diphenylpropan-2-yl 2-(3-acetoxy-4-methoxypicolinamido)propanoate], the pest or weed control at 100 ppm (Cercospora beticola) was over 80%, the pest or weed control at 100 ppm (Rhyncosporium secalis) was over 80% and the pest or weed control at 100 ppm (Alternaria solani) was under 80%.
For `COc1ccnc(C(=O)N[C@@H](C)C(=O)O[C@@H](C)C(c2ccccc2)c2ccccc2)c1OCOC(C)=O` [Cmpd 141, (S)-(S)-1,1-diphenylpropan-2-yl 2-(3-(acetoxymethoxy)-4-methoxypicolinamido)propanoate], the pest or weed control at 100 ppm (Cercospora beticola) was over 80%, the pest or weed control at 100 ppm (Rhyncosporium secalis) was over 80% and the pest or weed control at 100 ppm (Alternaria solani) was under 80%.
`COc1ccnc(C(=O)N[C@@H](C)C(=O)O[C@@H](C)C(c2ccccc2)c2ccccc2)c1OCOC(=O)C(C)C` [Cmpd 142, (S)-(S)-1,1-diphenylpropan-2-yl 2-(3-((isobutyryloxy)methoxy)-4-methoxypicolinamido)propanoate] gave a pest or weed control at 100 ppm (Cercospora beticola) of over 80%, a pest or weed control at 100 ppm (Rhyncosporium secalis) of over 80% and a pest or weed control at 100 ppm (Alternaria solani) of over 80%.
For `COc1ccnc(C(=O)N[C@@H](C)C(=O)O[C@@H](C)C(c2ccc(F)cc2)c2ccc(F)cc2)c1OC(C)=O` [Cmpd 145], the pest or weed control at 100 ppm (Cercospora beticola) was over 80%, the pest or weed control at 100 ppm (Rhyncosporium secalis) was over 80% and the pest or weed control at 100 ppm (Alternaria solani) was over 80%.
For `COc1ccnc(C(=O)N[C@@H](C)C(=O)O[C@@H](C)C(c2ccc(Cl)cc2)c2ccc(Cl)cc2)c1OCOC(C)=O` [Cmpd 176], the pest or weed control at 100 ppm (Cercospora beticola) was over 80%, the pest or weed control at 100 ppm (Rhyncosporium secalis) was over 80% and the pest or weed control at 100 ppm (Alternaria solani) was under 80%.
Work on `COc1ccnc(C(=O)N[C@@H](C)C(=O)O[C@@H](C)C(c2ccc(F)cc2F)c2ccc(F)cc2F)c1OCOC(C)=O` [Cmpd 148] yielded a pest or weed control at 100 ppm (Cercospora beticola) of over 80%, a pest or weed control at 100 ppm (Rhyncosporium secalis) of over 80% and a pest or weed control at 100 ppm (Alternaria solani) of under 80%.
Work on `COc1ccnc(C(=O)N[C@@H](C)C(=O)O[C@@H](C)C(c2ccc(Cl)cc2)c2ccc(Cl)cc2)c1OC(C)=O` [Cmpd 174] yielded a pest or weed control at 100 ppm (Cercospora beticola) of over 80%, a pest or weed control at 100 ppm (Rhyncosporium secalis) of over 80% and a pest or weed control at 100 ppm (Alternaria solani) of under 80%.
For `COc1ccnc(C(=O)N[C@@H](C)C(=O)O[C@@H](C)C(c2ccc(F)cc2F)c2ccc(F)cc2F)c1OC(C)=O` [Cmpd 150], the pest or weed control at 100 ppm (Cercospora beticola) was over 80%, the pest or weed control at 100 ppm (Rhyncosporium secalis) was over 80% and the pest or weed control at 100 ppm (Alternaria solani) was over 80%.
